Test results: patent publication US11771637B2, “Skin care composition and method of using the same” (The Procter & Gamble Company, priority 2021, dated 2023)
Where “and” joins values, the source holds several entries; their conditions need not be identical. Equal values may be shown once. No end group written: not given here. *: point of attachment. Palmitoyl = CCCCCCCCCCCCCCCC(=O)*

Tested on: Antioxidant Response Element (ARE)
Assay: ARE Assay (ARE-32 luciferase reporter cell line)
Type: cell-based
Source text: This method provides a way to quantitate ARE activation using the ARE-32 reporter cell line available from CXR Biosciences. The ARE-32 cell line is a stable MCF7 cell line containing pGL8x-ARE (8 copies of the rat GST ARE linked to the luciferase gene) and pCDNA3.1, which contains the neomycin selectable marker. A detailed description of the ARE-32 cell line and its development and use can be found in “Generation of a Stable Antioxidant Response Element-Driven Reporter Gene Cell Line and Its Use to Show Redox-Dependent Activation of Nrf2 by Cancer Chemotherapeutic Agents.” Cancer Res 2006; 66(22): 10983-94. A general schematic for how an ARE reporter assay operates to identify agents that promote transcription off the ARE is described in U.S. Publication No. 2011/0262570.
The ARE Assay uses expanded and cryopreserved passaged stocks. The cells are expanded over 4-5 days in culture flasks and passaged every 3-4 days, when cells are approximately 80% confluent. When cells are >70% confluent or ready to seed into 96 well plates, the cells are trypsinized, seeded and grown in 96-well plates. After growing for 1 day in 96-well plates, the media is replaced with fresh treatment media (phenol red free, no FBS) and cells are treated with compounds and incubated overnight (24 hours). Post treatment, cells are rinsed with 1×PBS, lysed and receive the luciferase kit reagent and luminescence is measured.
Frozen AREC32 cells (frozen in 90% FBS and 10% DMSO) are quickly thawed and placed in a 50 ml conical tube with 25 ml plating media. Centrifuge at 1500-2000 RPM for 5 minutes. Remove media without disturbing cell pellet. Re-suspend cells in 12 ml media and add to T-75 tissue culture flask. Cells should be at >80% confluency in 4-5 days and can be split 1:3 into T-150 flasks to grow cells for seeding plates if more cells are needed.
Cells are maintained and plated in 96-well plates with plating media. Subculture (passage cells) every 3-4 days or when ˜75-80% confluent. To passage cells, aspirate media from flask and add 6 ml 0.25% trypsin. Tilt flask in all directions to distribute the trypsin over the bottom of the flask and place in incubator. After 2-3 minutes observe cells under microscope to see if detached. If cells have not detached completely place in incubator for an additional 2-3 minutes. Once detached, add 6 ml maintenance media to neutralize trypsin and pipet into centrifuge tube. Centrifuge at 1200 RPM for 5 minutes. Remove media without disturbing cell pellet. Re-suspend pellet in 12 ml maintenance media and add to flask. If splitting or detaching cells from a T-150 flask double all volumes and follow same procedures.
Aspirate media from flask and add appropriate volume of 0.25% trypsin depending on size of flask (6 ml for T-75 and 12 ml for T-150 flask). Swirl flask to distribute trypsin on bottom of flask and return to incubator for 2-3 minutes. Observe cells under microscope. If cells have not detached completely place in incubator for an additional 2-3 minutes. Once cells are detached add DMEM equal to the volume of trypsin, mix gently and place in centrifuge tube. Centrifuge at […] for 5 minutes. Aspirate media without disturbing cell pellet. Re-suspend pellet in 10 ml DMEM. Dilute the cells 1:5 using 50 μl cells+200 μl DMEM. Use 20 μl of this dilution and 20 μl 0.4% trypan blue. Mix and add 10 μl/chamber to disposable hemocytometer and insert into Countess II Instrument. Non-viable cells will be blue, viable cells will be unstained. Cell seeding density may vary from ˜10,000 cells/well or more depending on cell passage growth. Cell density should be approx. 70-80% on day of treatment/dosing. […] Media must be free of phenol red.
Tert-Butylhydroquinone (tBHQ) (Aldrich, Cat #11,294-1). Prepare 100 mM stock (1M=166.21 mg/ml; 100 mM=16.62 mg/ml). Dilute to 750 μM (1:133) using 30 μl of 100 mM tBHQ and […] treatment media. 2 μl of positive control should yield a final concentration of 7.5 μM in the test well. […]

## palmitoyl pentapeptide-4 (Palmitoyl-KTTKS) [Pal-KTTKS]
Pal-KTTKS 1 ppm alone
  Average Net Luminescence Pal-kttks: 24.3
Table 3, Pal-kttks 1 ppm alone
  Average Net Luminescence Pal-kttks: 21

## acetyl tetrapeptide-11 (Ac-PPYL)
Ac-PPYL 0.05 ppm alone
  Average Net Luminescence Ac-PPYL: 12 and 19.4 and 20
Ac-PPYL 0.1 ppm alone
  Average Net Luminescence Ac-PPYL: 22 and 15.7
Ac-PPYL 0.5 ppm alone
  Average Net Luminescence Ac-PPYL: 14.7 and 26
Ac-PPYL 1 ppm alone
  Average Net Luminescence Ac-PPYL: 56 and 51
Ac-PPYL 2 ppm alone
  Average Net Luminescence Ac-PPYL: 64 and 61
Table 3, Ac-ppyl 2 ppm alone
  Average Net Luminescence Ac-PPYL: 57

## NC(=O)c1cccnc1 [N, niacinamide, reference compound]
N 1 ppm alone
  Average Net Luminescence N: 8
N 10 ppm alone
  Average Net Luminescence N: 12
N 50 ppm alone
  Average Net Luminescence N: 45
N 500 ppm alone
  Average Net Luminescence N: 53
Table 3, N 500 ppm alone
  Average Net Luminescence N: 45
